Source: patent publication US20250011790A1, “COMBINED TARGETING OF STAT3 AND ULKI TO TREAT GLIOBLASTOMA” (Vanderbilt University, priority 2021, published 2025)

Experiments:
mTORC1 = assay: Western blot of mTOR S2448 and S6 phosphorylation in MT330 cells; type: cell-based
Procedure: (§1) FIGS. 3B and 3C show quantification of LC3-II/Actin ratio (FIG. 3B) and p62/Actin ratio (FIG. 3C). […] Cell lysates were immunoblotted with the indicated antibodies and beta actin was used as an internal loading control. […] Cell lysates were analyzed by Western blotting using antibodies specific for STAT3, Prom1 and LC3-I/II.
(§2) Total cell lysates were immunoblotted with indicated antibodies with p-Actin serving as a loading control. FIGS. 6B to 6E show quantification of the ratio of phospho- and total-ATG14 (FIG. 6B); phospho- and total-Beclin1 (FIG. 6C); phospho- and total-ULK1 (FIG. 6D); and LC3-II and Actin (FIG. 6E).
(§3) Cell lysates were prepared using mammalian protein extraction buffer (Cell Signaling Technology) and a protease inhibitor cocktail followed by SDS-PAGE. Proteins were transferred to Immobilon-P membranes (Millipore Bedford) and probed with primary antibodies overnight at 4° C. in TBS buffer containing 0.1% Tween-20 and 5% nonfat dry milk (Bio-Rad). Membranes were subsequently incubated with horseradish peroxidase-conjugated secondary antibodies at room temperature for 1 h, and the immunocomplexes were visualized by the ECL detection system (Perkin Elmer) quantified on the Azure Biosystems C500. Membranes were stripped and re-probed for actin or GAPDH as loading controls. Representative Western blots from three experiments are shown. Densitometric analysis of all Western blots was performed using Image J software.

MT330 cells [1] = assay: Western blot of LC3-II and p62 (autophagy flux) in MT330 cells; type: cell-based
Procedure: FIGS. 3A to 3H show STAT3-KO activates autophagy through mTOR-independent but Prom1-dependent signalling pathways in MT330 cells. […] Cell lysates were analysed for LC3-I/II, p62 and CathepsinD.
as §1, §2
(§4) ULK1 knockdown was verified by Western blotting with ULK1 and phospho-ULK1, and cell lysates were analysed for LC3, cleaved caspase-3 with p-Actin as a loading control. FIGS. 7B to 7D show quantification of the ratio of total-ULK1 and Actin (FIG. 7B); LC3-II and Actin (FIG. 7C); active caspase-3 and Actin (FIG. 7D).
as §3

autophagy = settings: cited from earlier work
MT330 cells [2] = assay: Caspase-3 cleavage Western blot (apoptosis) in MT330 cells; type: cell-based; settings: MRT68921 20 μM, 5 h
Procedure: as §2, §4
as §3, with “Densitometric analysis of all Western blots was performed using Image J software.” left out

MT330 cells [3] = assay: Cell death ELISA (DNA fragmentation) in MT330 cells; type: cell-based; settings: STAT3-KO and mutant expressing cells vs control cells, MRT68921 20 μM, 5 h
Procedure: as §2, §4
The quantitative DNA fragmentation assay was performed using a cell death ELISA kit as described earlier (Bhattacharya S, et al. Apoptosis. 2014 19(3):451-466). […] Cells were lysed, and an aliquot of the nuclei-free supernatant was placed in streptavidin-coated plates and incubated with anti-histone biotin and anti-DNA peroxidase-conjugated antibodies for 2 h at room temperature. After incubation, the samples were aspirated, and the wells were washed 3 times with incubation buffer. […] The absorbance was read at 405 nm using the SpectraMax iD3 microplate reader (Molecular Devices). Results were expressed as absorbance at 405 nm/mg protein/min.

mTORC1 and AMPK = settings: cited from earlier work
[4] = tested on: hepatocellular carcinoma (HCC) cells; settings: cited from earlier work
ULK1 = target: T1, ULK1 (Homo sapiens, UniProt O75385); assay: Western blot of ULK1 signaling (p-ATG14, p-Beclin1, p-ULK1) in MT330 cells; type: cell-based; settings: Baf 100 nM, 3 h
T1 sequence (O75385 1-1050): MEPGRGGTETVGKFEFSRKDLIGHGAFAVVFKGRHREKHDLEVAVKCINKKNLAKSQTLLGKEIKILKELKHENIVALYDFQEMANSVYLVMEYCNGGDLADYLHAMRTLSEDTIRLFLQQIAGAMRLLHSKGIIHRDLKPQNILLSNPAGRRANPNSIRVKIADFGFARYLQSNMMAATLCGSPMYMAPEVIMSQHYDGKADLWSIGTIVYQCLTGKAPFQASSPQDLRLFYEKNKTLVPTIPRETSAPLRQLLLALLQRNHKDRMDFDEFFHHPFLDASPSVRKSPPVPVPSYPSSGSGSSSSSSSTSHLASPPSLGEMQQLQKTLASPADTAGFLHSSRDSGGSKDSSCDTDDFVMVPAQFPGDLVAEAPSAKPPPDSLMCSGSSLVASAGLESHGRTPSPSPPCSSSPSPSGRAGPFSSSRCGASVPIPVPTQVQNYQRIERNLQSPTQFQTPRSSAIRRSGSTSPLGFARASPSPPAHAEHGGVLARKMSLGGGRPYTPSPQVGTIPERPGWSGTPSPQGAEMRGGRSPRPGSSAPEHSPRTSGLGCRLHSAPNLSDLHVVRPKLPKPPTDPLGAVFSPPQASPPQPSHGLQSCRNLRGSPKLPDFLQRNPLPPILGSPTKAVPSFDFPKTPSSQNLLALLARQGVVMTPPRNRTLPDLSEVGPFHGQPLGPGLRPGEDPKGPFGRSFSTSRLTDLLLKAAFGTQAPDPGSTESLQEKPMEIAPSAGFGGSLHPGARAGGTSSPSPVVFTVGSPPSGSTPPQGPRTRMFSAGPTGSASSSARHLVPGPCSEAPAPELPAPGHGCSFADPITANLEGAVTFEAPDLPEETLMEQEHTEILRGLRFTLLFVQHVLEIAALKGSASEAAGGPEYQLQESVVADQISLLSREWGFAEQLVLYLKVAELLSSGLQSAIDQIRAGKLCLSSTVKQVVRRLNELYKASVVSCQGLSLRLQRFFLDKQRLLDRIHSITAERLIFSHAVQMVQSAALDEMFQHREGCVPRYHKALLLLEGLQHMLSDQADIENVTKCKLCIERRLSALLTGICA

AMPKα = assay: Western blot of p-AMPKα T172 in MT330 cells; type: cell-based; settings: Baf 100 nM, 3 h
Procedure: FIGS. 1A to 1H show STAT3 deletion activates autophagy through AMPKα-ULK1-TSC2 signaling pathways in MT330 cells. […] Untreated (UT) cells served as controls. Total cell lysates were prepared and immunoblotted with indicated antibodies. […] Blots were stripped and probed for total-AMPKα. […] Blots were stripped and probed for total-ULK1. […] Blots were stripped and probed with total-TSC2 antibody.
as §3

MT330 cells [5] = assay: Immunolocalization of LC3 and p62 in MT330 cells; type: cell-based
Procedure: EV MT330 cells, STAT3-KO, STAT3-KO cells rescued with WT-STAT3, were grown on chamber slides, and treated with or without 1 μM Baf for 48 h. Cells were fixed and immunostained for LC3, p62, and counterstained with DAPI, and analysed by confocal microscopy. Scale bar […].
Cells were cultured in chamber slides (Millipore) to ˜70% confluence and washed with PBS. Cells were fixed in 4% paraformaldehyde and methanol, and permeabilized with 1% Triton X-100. After blocking with 5% goat serum, cells were incubated with anti-rabbit LC3 and anti-mouse p62 antibodies and subsequently stained with Alexa Fluor 488 (goat anti-rabbit) and Alexa Fluor 633 (goat anti-mouse) secondary antibodies, as described previously. 24 DNA was counterstained with Vectashield mounting media with DAPI (Vectra Laboratories). Images were captured on a Zeiss LSM700 laser scanning confocal microscope.

AMPK = settings: cited from earlier work
[6] = EV MT330 cells, Everolimus (RAD001) 10 μM, 3 h

Q: Which “mTOR S2448 phosphorylation” value (mTORC1; MT330 cells, MRT68921 20 μM, 5 h) does the source give for CN1CCc2cc(Nc3ncc(C4CC4)c(NCCCNC(=O)C4CCC4)n3)ccc2C1 [MRT68921] here?
A: did not significantly block

Q: And the LC3-II levels (MT330 cells [1]; STAT3-KO cells and Y705F or S727A mutant cells, MRT68921 20 μM, 5 h)?
A: significantly increased

Q: What about the autophagy flux (MT330 cells [1]; cells lacking functional STAT3, MRT68921 20 μM ± Baf 100 nM, 5 h) of the same compound?
A: blocks autophagy flux

Q: What about the “effect on autophagy / autophagic flux” value (autophagy) of the same compound?
A: blocks autophagy flux

Q: What about the “apoptosis by caspase-3 cleavage” value (MT330 cells [2]; STAT3-KO and STAT3-mutant expressing lines) of the same compound?
A: induced apoptosis

Q: What about the “apoptosis by caspase-3 cleavage” value (MT330 cells [2]; control EV and WT-STAT3 reconstituted cells) of the same compound?
A: not

Q: And the “apoptotic cell death (DNA fragmentation) by ELISA” value (MT330 cells [3])?
A: significantly increased apoptosis

Q: With Cl.O=C(NCCCNc1nc(Nc2cccc(CN3CCOCC3)c2)ncc1C1CC1)C1CCC1 [MRT67307 hydrochloride] as the compound, how does the “effect on autophagy / autophagic flux” value (autophagy) read?
A: blocks autophagy

Q: Which “effect on autophagy / autophagic flux” value (autophagy) does the source give for O=C1Nc2ccc(C(=O)c3ccco3)cc2/C1=C/c1cc(Cl)c(O)c(Cl)c1 [GW406108X] here?
A: blocks autophagic flux

Q: And the “effect on upstream signaling kinases mTORC1 and AMPK” value (mTORC1 and AMPK)?
A: without affecting

Q: Which “mTOR S2448 phosphorylation” value (mTORC1; [6]) does the source give for CO[C@H]1C[C@@H]2CC[C@@H](C)[C@@](O)(O2)C(=O)C(=O)N2CCCC[C@H]2C(=O)O[C@H]([C@H](C)C[C@@H]2CC[C@@H](OCCO)[C@H](OC)C2)CC(=O)[C@H](C)/C=C(\C)[C@@H](O)[C@@H](OC)C(=O)[C@H](C)C[C@H](C)/C=C/C=C/C=C/1C [Everolimus, everolimus] here?
A: inhibited

Q: What about the “pS6K phosphorylation (downstream target of mTORC1)” value (mTORC1; [6]) of the same compound?
A: inhibited

Q: And the “autophagy induction (LC3-II/Actin ratio)” value (MT330 cells [1]; [6])?
A: no significant effect

Q: And the autophagic flux (MT330 cells [1]; cells lacking STAT3 and STAT3-KO cells expressing STAT3 phosphodeficient mutants, Everolimus 10 μM ± Baf 100 nM, 3 h)?
A: enhances autophagic flux

Q: What does the source list for COC(=O)c1cc2c(OC(C)C)cc(OC(C)C)cc2[nH]1 [XST-14]?
A: effect on autophagy / autophagic flux (autophagy): induces autophagy inhibition; apoptosis in hepatocellular carcinoma (HCC) cells [4]: induces apoptosis

Q: Which results are given for CO/C1=C\C(C)=C\[C@@H](C)[C@@H](O)[C@@H](C)C/C(C)=C/C=C/[C@H](OC)[C@@H]([C@@H](C)[C@@H](O)[C@H](C)[C@@]2(O)C[C@@H](O)[C@H](C)[C@@H](C(C)C)O2)OC1=O [Bafilomycin, Bafilomycin A1]?
A: LC3-II levels (MT330 cells [1]; MT330 cells expressing the S727A mutant, Baf 100 nM, 3 h): did not significantly change; p62 accumulation (MT330 cells [1]; STAT3-KO MT330 cells, Baf 100 nM, 3 h): partially increased; LC3-II levels (MT330 cells [1]; STAT3-deleted MT330 cells, Baf 100 nM, 3 h): further increased; LC3-II levels (MT330 cells [1]; control MT330 EV cells, Baf 100 nM, 3 h): no effect; ULK1 phosphorylation (ULK1): no effect; AMPKα phosphorylation (AMPKα): no effect; LC3 and p62 staining (MT330 cells [5]; EV MT330 cells, Baf 1 μM, 48 h): no effect; LC3+ and p62 puncta formation and co-localization (MT330 cells [5]; STAT3-KO MT330 cells, bafilomycin 48 h): increased

Q: Which IC50 (AMPK) does the source give for CCn1c(-c2nonc2N)nc2c(C#CC(C)(C)O)ncc(OC[C@H]3CCCNC3)c21 [GSK690693] here?
A: 50 nM
